The text below walks through data of paper PMC2674587 (BMC Immunology, 2009).

pIC50: −log10 of the molar value. Like-named read-outs stand apart in the source and are kept apart here. Some results are limits rather than exact numbers.

Assay [1] has as its system T cell-dependent antibody responses to NP-CGG. As to the kind of experiment: T cell-dependent antibody responses to NP-CGG (ELISA titers, altered ligand density ELISA). It is filed as in vivo, C57BL/6 mice. To be noted: mice on chow ~400 mg/kg, immunized with NP-CGG. As to the method: Mice were immunized i.p. with 100 μg of NP-CGG in alum for the primary immunization, and 100 μg of NP-CGG in PBS i.p. for the secondary immunization. Mice were bled via the retro orbital sinus at indicated times and the levels of anti-NP and CGG antibodies and their isotypes were determined by ELISA as described previously. Briefly, mouse serum antibodies were immobilized onto 96-well plates coated with NP-BSA or CGG and detected with biotin-conjugated anti-mouse immunoglobulins. […] Relative affinities of serum antibodies were evaluated by using altered ligand density ELISA as described earlier.
Background: ELISA stands for enzyme-linked immunosorbent assay.

A further assay concerns the target hDPP-2 (Homo sapiens, UniProt Q9UHL4). As to the kind of experiment: DPP-2 enzyme inhibition. Type of assay: biochemical.
A further assay addresses Amino peptidase P. To be noted: read-out: does not inhibit Amino peptidase P; cited from earlier work.
For assay [2], the target named is T1, hDPP-9 (Homo sapiens, UniProt Q86TI2). The arrangement: method as in PMID 16186403, PMID 16731832. To be noted: read-out: does not inhibit DPP-9 at; cited from earlier work.
Assay [3] has as its system Fibroblast activation protein. To be noted: read-out: does not inhibit Fibroblast activation protein; cited from earlier work.
The target in assay [4] is T1, hDPP-9. As to the kind of experiment: DPP-9 enzyme inhibition. Type of assay: biochemical.
For the next assay, the target named is Prolyl endopeptidase. The note with it: read-out: does not inhibit Prolyl endopeptidase; cited from earlier work.
Assay [5] has as its system H-Y+ target cells (male splenocytes). Nature of the assay: In vivo cytotoxicity (CTL) assay against H-Y antigen. More on the design: species or system C57BL/6 mice. The note with it: for killing of male cells (CD8 T cell mediated): female mice primed and boosted with male splenocytes, CFSE-labeled targets, FACS, n = 8. As to the method: C57BL/6 female and male mice, age 8 ~10 weeks, were used for in vivo cytotoxicity assays. Female mice were immunized i.p. with syngeneic C57BL/6 male splenocytes (1 × 10^7 in 100 μl PBS) at day 0 and boosted at day 10 to generate anti-H-Y cytotoxic T cells. The in vivo CTL assay was performed as described earlier with some modifications Target cells were prepared and adoptively transferred to recipient female mice at day 18 post priming and specific killing of target H-Y^+ cells was analyzed at day 19. Briefly, male and female C57BL/6 naïve splenocytes were isolated and depleted of erythrocyte with RBC lysis buffer (Sigma-Aldrich, St. Louis, MO, USA). The splenocytes were washed 1× with 10% FBS RPMI 1640 and 2× with PBS. The cell densities were adjusted to 2×10^7 cells/ml. Male splenocytes were labeled with a high concentration (5 μM) of 5,6-carboxy-fluorescein succinimdyl ester (CFSE, Molecular Probes, Eugene, OR, USA), and the female splenocyte were labeled with low CFSE (0.5 μM). CFSE labeling was carried out by incubating 2 × 10^7 cells/ml in PBS with CFSE at 37°C in a 5% CO2 incubator for 10 min and quenched by adding 10% FBS RPMI to a final volume of 50 ml. Cells were washed 1× with 10%FBS RPMI and 2× with PBS to remove free CFSE. Male and female splenocytes were mixed 1:1 in PBS for the adoptive transfer. 10^6 cells in 200 μl PBS were injected into recipient female mice via tail vein injection. Similar amounts of cell were injected into the control unimmunized female mice. Spleens from the recipient mice were harvested after 16 hr, and splenocytes were analyzed for specific killing of H-Y^+ target cells by FACS. At least 5,000 CFSE positive cells were analyzed. The recovery and percent killing of the CFSE-labeled targets were calculated as follows: […]

The target of the next assay is Prolidase. The note with it: read-out: does not inhibit Prolidase; cited from earlier work.
The target of the next assay is Proline dipeptidase. The note with it: read-out: does not inhibit Proline dipeptidase; cited from earlier work.

T1 sequence (Q86TI2 whole entry): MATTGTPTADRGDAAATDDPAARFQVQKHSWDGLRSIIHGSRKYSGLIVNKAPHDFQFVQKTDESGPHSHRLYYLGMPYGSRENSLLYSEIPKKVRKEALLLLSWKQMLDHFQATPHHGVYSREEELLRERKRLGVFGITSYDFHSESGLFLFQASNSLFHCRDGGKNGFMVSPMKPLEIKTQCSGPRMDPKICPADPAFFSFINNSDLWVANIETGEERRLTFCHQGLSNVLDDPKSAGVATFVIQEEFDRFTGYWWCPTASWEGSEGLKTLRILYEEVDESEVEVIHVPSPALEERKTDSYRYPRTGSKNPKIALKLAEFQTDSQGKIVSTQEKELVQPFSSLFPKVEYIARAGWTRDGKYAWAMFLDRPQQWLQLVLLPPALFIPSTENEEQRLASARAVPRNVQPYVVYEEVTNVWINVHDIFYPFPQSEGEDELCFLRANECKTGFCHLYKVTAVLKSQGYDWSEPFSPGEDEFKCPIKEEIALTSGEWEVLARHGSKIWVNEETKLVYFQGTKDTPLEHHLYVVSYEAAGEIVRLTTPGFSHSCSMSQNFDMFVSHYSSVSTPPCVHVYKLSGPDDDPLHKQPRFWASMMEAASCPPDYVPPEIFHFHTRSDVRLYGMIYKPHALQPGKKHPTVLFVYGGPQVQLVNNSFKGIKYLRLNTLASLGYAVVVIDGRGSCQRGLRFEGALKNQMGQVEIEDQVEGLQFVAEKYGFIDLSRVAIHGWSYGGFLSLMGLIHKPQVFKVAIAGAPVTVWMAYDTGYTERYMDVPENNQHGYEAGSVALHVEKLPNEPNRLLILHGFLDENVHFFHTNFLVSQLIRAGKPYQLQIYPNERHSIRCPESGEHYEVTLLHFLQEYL

Regarding `N[C@@H](CC(=O)N1CCn2c(nnc2C(F)(F)F)C1)Cc1cc(F)ccc1F` [Des-flurositagliptin, des-fluro sitagliptin], the “titers of anti-CGG IgG1 and other isotypes, drug treated vs control animals” value in [1] was “similar”. Also, in [1] (primary and secondary response vs control), the “total anti-NP response as measured by λ-bearing and G1 isotype” value is listed as “unaltered”. In addition, the pIC50 (at hDPP-2; at Amino peptidase P; on hDPP-9 [2]; in [3]; on hDPP-9 [4]; on Prolyl endopeptidase) was below 5.00 in each case. In addition, the pIC50 at Prolidase and at Proline dipeptidase was below 5.00 in each case. Moreover, the “killing of male cells (CD8 T cell mediated)” value in [5] is recorded as ~ 67%. Also, the “CD8 T cell cytotoxicity in comparison to the wild type animals” value in [5] (female mice primed with male cells, compound in chow throughout) is “equivalent cytotoxicity”.
For `C=CC[C@@H]1/C=C(\C)C[C@H](C)C[C@H](OC)[C@H]2O[C@@](O)(C(=O)C(=O)N3CCCC[C@H]3C(=O)O[C@H](/C(C)=C/[C@@H]3CC[C@@H](O)[C@H](OC)C3)[C@H](C)[C@@H](O)CC1=O)[C@H](C)C[C@@H]2OC` [FK506], the “killing of male cells (CD8 T cell mediated)” value in [5] was determined as 40%.
